Measurements as given in patent US20100189648A1, “INHIBITORS FOR DISRUPTING THE INTERACTION OF UBIQUITINATION RELATED ENZYMES AND USES THEREOF” (priority 2006, published 2010).

Assays:
Assay type in all cases: cell-based, human
SKOV3 = test: MTT survival assay, ovarian cancer cell line (SKOV3); conditions: for IC50 (95% confidence level): Bliss method, unit not printed (concentrations in μg/ml)
Summary of the method: (§1)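 After overnight attachment, cells in 10% FBS RPMI1640 or MEM were exposed to test articles for 68 hours at 37 C, in triplicate. Viability was read as MTT (1 mg/ml, 4 h) formazan absorbance at 570 nm after DMSO solubilization. Growth inhibition was taken relative to negative control, with IC50 at 95% confidence by Bliss method.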

MCF-7 = test: MTT survival assay, breast cancer cell line (MCF-7); set-up: IC50 (95% confidence level), interval: unit not given beside the values
Summary of the method: as §1

SMMC-7721 = test: MTT survival assay, liver cancer cell line (SMMC-7721)
Summary of the method: as §1

Hela cells = test: MTT survival assay, cervical cancer line (Hela cells); set-up: IC50 (95% confidence level), interval: unit not given beside the values
Summary of the method: as §1

[1] = SKOV3 (second table), 0.0625 μg/ml
[2] = SKOV3 (second table), 0.25 μg/ml
[3] = Bliss method, unit not printed (concentrations in μg/ml)
[4] = SMMC-7721 Experiment #2, 0.25 μg/ml
[5] = SMMC-7721 Experiment #2, 1 μg/ml
[6] = SMMC-7721 Experiment #2, 4 μg/ml

## N.N.[Cl][Pt][Cl] [DDP, cisplatin, reference compound]
SKOV3; SKOV3 (first table), 1 μg/ml
  OD(A570 nm): 0.267 ± 0.044
SKOV3; SKOV3 (first table), 4 μg/ml
  IR (%): 88.2%
  OD(A570 nm): 0.083 ± 0.002
SKOV3; SKOV3 (first table)
  IC50 (95% confidence level): 0.89
SKOV3; [1]
  IR (%): 1.6%
  OD(A570 nm): 0.689 ± 0.065
SKOV3; [2]
  IR (%): 8.3%
  OD(A570 nm): 0.643 ± 0.141
SKOV3; SKOV3 (second table), 1 μg/ml
  IR (%): 62.0%
  OD(A570 nm): 0.267 ± 0.044
SKOV3; SKOV3 (second table), 4 μg/ml
  IR (%): 88.2%
  OD(A570 nm): 0.083 ± 0.002
SKOV3; SKOV3 (second table)
  IC50 (95% confidence level): 0.89
MCF-7; 0.0625 μg/ml
  IR (%): 12.8%
  OD(A570 nm): 0.787 ± 0.005
MCF-7; 0.25 μg/ml
  IR (%): 2.6%
  OD(A570 nm): 0.879 ± 0.059
MCF-7; 1 μg/ml
  IR (%): 83.3%
  OD(A570 nm): 0.151 ± 0.011
MCF-7; 4 μg/ml
  IR (%): 88.2%
  OD(A570 nm): 0.107 ± 0.007
MCF-7; 95% confidence limits of IC50
  IC50 (95% confidence level), interval: 0.483-0.737
MCF-7; [3]
  IC50 (95% confidence level): 0.596
SMMC-7721; SMMC-7721, 0.0625 μg/ml
  IR (%): −29.4%
  OD(A570 nm): 0.570 ± 0.166
SMMC-7721; SMMC-7721, 0.25 μg/ml
  IR (%): 46.2%
  OD(A570 nm): 0.237 ± 0.020
SMMC-7721; SMMC-7721, 1 μg/ml
  IR (%): 71.0%
  OD(A570 nm): 0.128 ± 0.011
SMMC-7721; SMMC-7721, 4 μg/ml
  IR (%): 61.6%
  OD(A570 nm): 0.169 ± 0.022
SMMC-7721; [4]
  IR (%): 24.5%
  OD(A570 nm): 0.348 ± 0.045
SMMC-7721; [5]
  IR (%): 43.1%
  OD(A570 nm): 0.262 ± 0.020
SMMC-7721; [6]
  IR (%): 47.0%
  OD(A570 nm): 0.244 ± 0.155
SMMC-7721; SMMC-7721 Experiment #2, 95% confidence limits of IC50
  IC50 (95% confidence level), interval: 3.757-4.640
SMMC-7721; SMMC-7721 Experiment #2, Bliss method, unit not printed (concentrations in μg/ml)
  IC50 (95% confidence level): 4.155
Hela cells; 0.0625 μg/ml
  IR (%): 35.3%
  OD(A570 nm): 0.481 ± 0.081
Hela cells; 0.25 μg/ml
  IR (%): 72.2%
  OD(A570 nm): 0.206 ± 0.014
Hela cells; 1 μg/ml
  IR (%): 83.4%
  OD(A570 nm): 0.123 ± 0.007
Hela cells; 4 μg/ml
  IR (%): 89.5%
  OD(A570 nm): 0.078 ± 0.001
Hela cells; 95% confidence limits of IC50
  IC50 (95% confidence level), interval: 0.062-0.156
Hela cells; [3]
  IC50 (95% confidence level): 0.105
